Earlier results in PMC6054295 (Infection and Drug Resistance, 2018).
Where no end group is shown, it is not given here.

How the values were obtained:
[1] = test system: P. aeruginosa; details: at concentrations > 100 μM
[2] = test system: 3T3 cells
[3] = test system: MEWO cells

Substance | antibacterial activity [1] | cytotoxicity [2] | cytotoxicity [3] | concentration at which it behaves as a membrane-disrupting peptide [µM]
N-APPGARPPPGPPPPGPPPPGP-C [SP-B] | negligible antibacterial activity | noncytotoxic | noncytotoxic | –
indolicidin: a proline- and tryptophan-rich peptide (ILPWKWPWWPWRR; ends and bridges not checked; UniProt P33046 131-143, looked up) | – | – | – | > 2.6
